Patent US8895544B2, “Indazoles” (Pfizer Limited, priority 2011, dated 2014)

How the values were obtained:
[1] = target: JAK3 enzyme (Homo sapiens (Human), UniProt P52333); assay: JAK3 isolated enzyme high ATP Caliper endpoint assay; type: biochemical; conditions: 400 μM ATP, read-out: JAK-3 IC50
Protocol: JAK3 Isolated Enzyme High ATP Caliper Endpoint Assay
4 mM stock solutions of test compounds are prepared and serially diluted in 100% DMSO. […] Greiner 384 well plates are prepared containing 400 nl of serially diluted compound, standard and HPE/ZPE. Final top assay concentration is 80 μM as the assay dilution factor is fifty.
JAK3 enzyme stock is diluted to 2 nM in assay buffer (10 mM HEPES free acid pH 7.5, 10 mM HEPES free base pH 7.5, 10 mM MgCL2, 0.0005% Tween-20, 0.01% BSA) containing 2 mM DTT (all supplied by Sigma). ATP is made up at 10 mM stock in sterile water and diluted to 800 μM in assay buffer. Peptide (American peptide company) is made up at 30 mM in 100% DMSO and diluted to 3 μM in assay buffer.
Assays are performed in Greiner polypropylene 384 well plates. Following compound preparation within the plate 10 μl of enzyme in assay buffer containing DTT is added using a Multidrop Micro. Final assay concentration of enzyme is 1 nM. Compound and enzyme are pre-incubated for 60 minutes at room temperature using low evaporation lids before addition of 10 μl ATP/peptide mixture in assay buffer using a Multidrop Micro. […] Plates are foil sealed and incubated for a further 60 minutes at room temperature. Stop solution is added to the plates (20 μl/well) using a Multidrop Micro and plates are loaded onto the Caliper EZReader II. Data is generated by the shift in mobility of non-phosphorylated peptide substrates and phosphorylated products by electrophoresis within a chip and detected via LED induced fluorescence. Data is analysed using LabChip EZReader software which calculates the relative heights of the substrate and product peaks and reports product/product plus substrate peak ratio. Test compound data are subsequently expressed as percentage inhibition defined by HPE and ZPE values for each plate. Percentage inhibition in the presence of test compound is plotted against compound concentration on a log scale to determine an IC50 from the resultant sigmoid curve.

[2] = target: JAK1 enzyme (Homo sapiens (Human), UniProt P23458); assay: JAK1 isolated enzyme high ATP Caliper endpoint assay; type: biochemical; conditions: 2.5 mM ATP, read-out: JAK-1 IC50;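 note: enzyme at 10 nM preincubated with inhibitor 30 min, then kinase reaction 120 min at room temperature, peptide phosphorylation read by microfluidic mobility shift with fluorescence, inhibition relative to HPE and ZPE plate controls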
JAK1 enzyme, sequence (P23458 whole entry): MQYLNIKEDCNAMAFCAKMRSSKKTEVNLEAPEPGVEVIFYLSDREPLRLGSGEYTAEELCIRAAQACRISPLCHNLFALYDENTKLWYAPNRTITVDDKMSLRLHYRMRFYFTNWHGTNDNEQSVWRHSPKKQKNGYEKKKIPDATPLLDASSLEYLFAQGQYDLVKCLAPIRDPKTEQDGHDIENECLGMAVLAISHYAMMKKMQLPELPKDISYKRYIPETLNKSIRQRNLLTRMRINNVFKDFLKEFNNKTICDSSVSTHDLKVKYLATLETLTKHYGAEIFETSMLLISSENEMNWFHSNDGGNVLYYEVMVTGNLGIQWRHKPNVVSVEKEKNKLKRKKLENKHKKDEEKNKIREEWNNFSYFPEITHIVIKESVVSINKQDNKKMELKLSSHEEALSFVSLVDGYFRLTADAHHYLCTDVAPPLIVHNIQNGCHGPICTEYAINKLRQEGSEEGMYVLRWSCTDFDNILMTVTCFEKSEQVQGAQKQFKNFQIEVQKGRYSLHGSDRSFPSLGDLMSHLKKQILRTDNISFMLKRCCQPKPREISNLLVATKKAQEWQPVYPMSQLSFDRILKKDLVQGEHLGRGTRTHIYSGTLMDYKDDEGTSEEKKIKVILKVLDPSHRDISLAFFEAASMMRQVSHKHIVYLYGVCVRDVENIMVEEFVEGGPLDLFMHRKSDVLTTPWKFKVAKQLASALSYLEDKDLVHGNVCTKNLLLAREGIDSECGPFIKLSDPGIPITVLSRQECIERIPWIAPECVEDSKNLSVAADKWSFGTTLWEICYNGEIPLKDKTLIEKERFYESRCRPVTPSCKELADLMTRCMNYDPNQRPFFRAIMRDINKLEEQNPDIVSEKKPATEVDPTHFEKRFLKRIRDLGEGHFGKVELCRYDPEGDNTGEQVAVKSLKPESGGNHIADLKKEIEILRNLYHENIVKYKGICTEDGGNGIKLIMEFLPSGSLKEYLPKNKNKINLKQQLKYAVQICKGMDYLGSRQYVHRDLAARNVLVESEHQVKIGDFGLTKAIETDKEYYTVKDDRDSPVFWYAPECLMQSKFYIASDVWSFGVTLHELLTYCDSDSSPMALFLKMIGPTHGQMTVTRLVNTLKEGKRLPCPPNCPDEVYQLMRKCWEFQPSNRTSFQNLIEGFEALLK
Protocol: JAK1 Isolated Enzyme High ATP Caliper Endpoint Assay
4 mM stock solutions of test compounds are prepared and serially diluted in 100% DMSO. A standard curve using PF-00956980 (commercially available from Sigma Aldrich) at a top concentration of 4 mM is also prepared. High percentage effect (HPE) is defined by 500 μM PF-00956980 and 0% effect (ZPE) is defined by 100% DMSO. Greiner 384 well plates are prepared containing 400 nl of serially diluted compound, standard and HPE/ZPE. Final top assay concentration is 80 μM as the assay dilution factor is fifty.
JAK1 enzyme (Invitrogen) stock solution is made up at 5.2 μM in sterile water. JAK1 enzyme stock is diluted to 20 nM in assay buffer (10 mM HEPES free acid pH 7.5, 10 mM HEPES free base pH 7.5, 10 mM MgCL2, 0.0005% Tween-20, 0.01% BSA) containing 2 mM DTT (all supplied by Sigma) with the addition of one protease tablet per 25 mls buffer (Roche). ATP is made up at 10 mM stock in sterile water and diluted to 5 mM in assay buffer. Peptide H236 (Caliper Life Sciences) is made up at 1.5 mM in 100% DMSO and diluted to 3 μM in assay buffer. Stop buffer comprises 140 mM HEPES, 22.5 mM EDTA (Sigma) and 0.15% coating reagent (Caliper Life Sciences).
Assays are performed in Greiner polypropylene 384 well plates. Following compound preparation within the plate 10 μl of enzyme in assay buffer containing DTT is added using a Multidrop Micro. Final assay concentration of enzyme is 10 nM. Compound and enzyme are pre-incubated for 30 minutes at room temperature using low evaporation lids before addition of 10 μl ATP/peptide mixture in assay buffer using a Multidrop Micro. Final assay concentrations are 2.5 mM ATP and 1.5 μM peptide. Plates are foil sealed and incubated for a further 120 minutes at room temperature. Stop solution is added to the plates (20 μl/well) using a Multidrop Micro and plates are loaded onto the Caliper EZReader II. Data is generated by the shift in mobility of non-phosphorylated peptide substrates and phosphorylated products by electrophoresis within a chip and detected via LED induced fluorescence. Data is analysed using LabChip EZReader software which calculates the relative heights of the substrate and product peaks and reports product/product plus substrate peak ratio. Test compound data are subsequently expressed as percentage inhibition defined by HPE and ZPE values for each plate. Percentage inhibition in the presence of test compound is plotted against compound concentration on a log scale to determine an IC50 from the resultant sigmoid curve.

JAK3 enzyme, sequence (P52333 whole entry): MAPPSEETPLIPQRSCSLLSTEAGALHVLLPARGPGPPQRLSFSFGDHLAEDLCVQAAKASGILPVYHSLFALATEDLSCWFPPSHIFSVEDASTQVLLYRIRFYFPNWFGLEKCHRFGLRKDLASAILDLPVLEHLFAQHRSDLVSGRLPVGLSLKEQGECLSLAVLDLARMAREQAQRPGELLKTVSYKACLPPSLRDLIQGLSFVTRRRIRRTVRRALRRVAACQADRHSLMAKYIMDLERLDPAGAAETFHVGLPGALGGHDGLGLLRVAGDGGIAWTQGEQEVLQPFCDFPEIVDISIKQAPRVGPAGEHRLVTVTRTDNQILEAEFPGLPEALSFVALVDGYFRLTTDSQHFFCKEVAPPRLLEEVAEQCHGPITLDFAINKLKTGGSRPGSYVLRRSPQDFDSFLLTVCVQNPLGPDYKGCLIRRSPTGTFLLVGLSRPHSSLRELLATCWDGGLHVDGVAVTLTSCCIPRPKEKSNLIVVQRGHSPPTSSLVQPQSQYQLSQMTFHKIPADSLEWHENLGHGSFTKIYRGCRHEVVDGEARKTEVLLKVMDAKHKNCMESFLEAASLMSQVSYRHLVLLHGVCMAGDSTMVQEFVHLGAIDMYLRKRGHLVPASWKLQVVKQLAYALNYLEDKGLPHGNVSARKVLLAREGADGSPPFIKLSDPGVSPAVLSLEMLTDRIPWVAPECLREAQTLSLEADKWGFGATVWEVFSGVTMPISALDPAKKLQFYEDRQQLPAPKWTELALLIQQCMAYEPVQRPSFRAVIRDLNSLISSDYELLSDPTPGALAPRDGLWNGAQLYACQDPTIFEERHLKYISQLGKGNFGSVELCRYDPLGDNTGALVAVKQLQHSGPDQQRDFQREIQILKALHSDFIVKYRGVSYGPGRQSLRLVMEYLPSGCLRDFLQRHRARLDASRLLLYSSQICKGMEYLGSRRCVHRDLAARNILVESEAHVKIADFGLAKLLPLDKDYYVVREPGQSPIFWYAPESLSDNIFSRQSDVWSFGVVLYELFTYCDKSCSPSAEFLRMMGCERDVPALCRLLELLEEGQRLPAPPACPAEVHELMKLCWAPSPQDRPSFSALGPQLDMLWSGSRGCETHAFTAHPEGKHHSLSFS

| IC50 [1] [nM] | IC50 [2] [nM] | Compound |
| --- | --- | --- |
| < 0.6 | < 0.7 | CCc1cc(O)c(F)cc1-c1ccc2c(-c3nc4c([nH]3)CCN(C(=O)c3ccc(F)cc3)C4)n[nH]c2c1 [Example 1, {2-[6-(2-Ethyl-5-fluoro-4-hydroxy-phenyl)-1H-indazol-3-yl]-1,4,6,7-tetrahydro-imidazo[4,5-c]pyridin-5-yl}-(4-fluoro-phenyl)-methanone] |
| 1.4 | 2.9 | CCc1cc(O)c(F)cc1-c1ccc2c(-c3nc4c([nH]3)CCN(C(=O)c3ccc(Cl)cn3)CC4)n[nH]c2c1 [Example 8, (5-Chloro-pyridin-2-yl)-{2-[6-(2-ethyl-5-fluoro-4-hydroxy-phenyl)-1H-indazol-3-yl]-4,5,7,8-tetrahydro-1H-imidazo[4,5-d]azebin-6-yl}-methanone] |
| 1.9 | 18.9 | CCc1cc(O)c(F)cc1-c1ccc2c(-c3nc4c([nH]3)CCN(C(=O)c3cc(C#N)ccn3)CC4)n[nH]c2c1 [Example 9, 2-{2-[6-(2-Ethyl-5-fluoro-4-hydroxy-phenyl)-1H-indazol-3-yl]-4,5,7,8-tetrahydro-1H-imidazo[4,5-d]azepine-6-carbonyl}-isonicotinonitrile] |
| 1.3 | 4.5 | CCc1cc(O)c(F)cc1-c1ccc2c(-c3nc4c([nH]3)CCN(C(=O)c3ccc(F)cc3)CC4)n[nH]c2c1 [Example 10, {2-[6-(2-Ethyl-5-fluoro-4-hydroxy-phenyl)-1H-indazol-3-yl]-4,5,7,8-tetrahydro-1H-imidazo[4,5-d]azepin-6-yl}-(4-fluoro-phenyl)-methanone] |
| 1 | 2.5 | CCc1cc(O)c(F)cc1-c1ccc2c(-c3nc4c([nH]3)CCN(C(=O)c3ccsn3)CC4)n[nH]c2c1 [Example 11, {2-[6-(2-Ethyl-5-fluoro-4-hydroxy-phenyl)-1H-indazol-3-yl]-4,5,7,8-tetrahydro-1H-imidazo[4,5-d]azepin-6-yl}-isothiazol-3-yl-methanone] |
| – | 4 | CCc1cc(O)c(F)cc1-c1ccc2c(-c3nc4c([nH]3)CCN(Cc3ccc(N5CCCCC5)nc3)C4)n[nH]c2c1 [Example 25, 5-Ethyl-2-fluoro-4-{3-[5-(3,4,5,6-tetrahydro-2H-[1,2′]bipyridinyl-5′-ylmethyl)-4,5,6,7-tetrahydro-1H-imidazo[4,5-c]pyridin-2-yl]-1H-indazol-6-yl}-phenol] |
| – | 3.7 | {2-[6-(2-Ethyl-5-fluoro-4-hydroxy-phenyl)-1H-indazol-3-yl]-1,4,6,7-tetrahydro-imidazo[4,5-c]pyridin-5-yl}-isothiazol-3-yl-methanone [Example 3] |

| Compound | IC50 [1] [nM] | IC50 [2] [nM] |
| --- | --- | --- |
| CCc1cc(O)c(F)cc1-c1ccc2c(-c3nc4c([nH]3)CCN(C(=O)c3ccsn3)C4)n[nH]c2c1 [Example 2, {2-[6-(2-Ethyl-5-fluoro-4-hydroxy-phenyl)-1H-indazol-3-yl]-1,4,6,7-tetrahydro-imidazo[4,5-c]pyridin-5-yl}-isothiazol-3-yl-methanone] | 0.5 | 46 |
| CCc1cc(O)c(F)cc1-c1ccc2c(-c3nc4c([nH]3)CCN(S(=O)(=O)c3ccc(N5CCOCC5)nc3)C4)n[nH]c2c1 [Example 6, 5-Ethyl-2-fluoro-4-{3-[5-(6-morpholin-4-yl-pyridine-3-sulfonyl)-4,5,6,7-tetrahydro-1H-imidazo[4,5-c]pyridin-2-yl]-1H-indazol-6-yl}-phenol] | 1.3 | 8.4 |
| CCc1cc(O)c(F)cc1-c1ccc2c(-c3nc4c([nH]3)CCN(S(=O)(=O)c3ccc(Oc5ccccc5)nc3)C4)n[nH]c2c1 [Example 7, 5-Ethyl-2-fluoro-4-{3-[5-(6-phenoxy-pyridine-3-sulfonyl)-4,5,6,7-tetrahydro-1H-imidazo[4,5-c]pyridin-2-yl]-1H-indazol-6-yl}-phenol] | 1.5 | 2.5 |
| CCc1cc(O)c(F)cc1-c1ccc2c(-c3nc4c([nH]3)CCN(C(=O)c3ccc(Cl)cn3)C4)n[nH]c2c1 [Example 15, (5-Chloro-pyridin-2-yl)-{2-[6-(2-ethyl-5-fluoro-4-hydroxy-phenyl)-1H-indazol-3-yl]-1,4,6,7-tetrahydro-imidazo[4,5-d]pyridin-5-yl}-methanone] | 1 | – |
